This note sets out measurements from the Deep4Chem optical property database.

A short description of this data set: photoluminescence quantum yield (fraction); solvent given as SMILES.

`c1ccc(-n2nc(-c3ccc(-c4ccc5c(c4)C(c4ccccc4)(c4ccccc4)c4ccccc4-5)cc3)nc2-c2ccccn2)cc1` showed a photoluminescence quantum yield (in ClCCl) of 0.158.
`CC(C)[Si](C#Cc1ccc(C#C[Si](C(C)C)(C(C)C)C(C)C)c2nc3c(ccc4ccccc43)nc12)(C(C)C)C(C)C` yielded a photoluminescence quantum yield (in CCCCCC) of 0.05.
In turn, `N#Cc1ccc(-c2pc3ccccc3s2)cc1` (configuration not stated) came in with a photoluminescence quantum yield (in CC#N) of 0.017.
On to `CN(C)c1ccc(C2=Cc3c4ccccc4c4ccccc4[n+]3[B-](F)(F)O2)cc1`, for which the photoluminescence quantum yield by setting is: (in C1CCOC1) 0.585; (in C1COCCO1) 0.855; (in CC1CCCCC1) 1; (in CC#N) 0.447; (in CCOC(C)=O) 0.655; (in CCOCC) 0.999. Besides, the photoluminescence quantum yield turned out to be 0.323 (in CN(C)C=O), 0.471 (in CO), 0.441 (in COC(C)=O) and 0.811 (in ClC(Cl)Cl).
With `COc1cc2c(cc1-c1ccsc1)Cc1c3c(c4c(c1-2)-c1cc(OC)c(-c2ccsc2)cc1C4)C(=O)N(CCC(C)C)C3=O`, the photoluminescence quantum yield (in C1CCOC1) stood at 0.55.
Regarding `Cn1c2ccc(S(=O)(=O)O)cc2c(=O)c2cc(S(=O)(=O)O)ccc21`, the photoluminescence quantum yield (in CS(C)=O) is 0.64 and the photoluminescence quantum yield (in O) turned out to be 0.76.
`CCOC(=O)/C=C/C1=C(c2ccc(C)cc2)C2=Nc3c(-c4ccc(C)cc4)c(Br)c(-c4ccc(C)cc4)n3[B-](F)(F)[N+]2=C1c1ccc(C)cc1` yielded a photoluminescence quantum yield (in ClC(Cl)Cl) of 0.03.
For the compound `CCN(CC)c1ccc2cc(-c3csc(N)c3C#N)c(=O)oc2c1`, the photoluminescence quantum yield came out at 0.62 (in C1CCOC1); 0.02 (in CO); 0.04 (in CS(C)=O); 0.74 (in Cc1ccccc1); 0.6 (in ClCCl).
On to `C[Si](C)(c1c2ccccc2cc2ccccc12)[Si](C)(C)c1c2ccccc2cc2ccccc12`, for which the photoluminescence quantum yield (in C1CCCCC1) is 0.07 and the photoluminescence quantum yield (in CC#N) turned out to be 0.07.
In the case of `c1ccc(-c2nc3c4ccccc4c4ccccc4c3n2-c2cccc(-c3nc4c5ccccc5c5ccccc5c4n3-c3ccccc3)c2)cc1`, the photoluminescence quantum yield (in Cc1ccccc1) amounted to 0.75.
In the case of `CN(C)c1ccc(/C=C/c2ccc([N+](=O)[O-])c(O)c2)cc1`, the photoluminescence quantum yield runs as follows: (in C1CCCCC1) 0.11; (in C1COCCO1) 0.02; (in CCCCCCC) 0.09; (in Cc1ccccc1) 0.09.
As for `COc1ccc2cc(/C=C/c3ccccc3)c(=O)oc2c1`, the photoluminescence quantum yield (in CC#N) was found to be 0.71.
As for `O=C1c2ccc3c4c(Oc5ccccc5)cc5c6c(ccc(c7c(Oc8ccccc8)cc(c2c37)C(=O)N1c1ccc(O)cc1)c64)C(=O)N(c1ccc(O)cc1)C5=O`, the photoluminescence quantum yield runs as follows: (in C1CCOC1) 0.3; (in CN1CCCC1=O) 0.2; (in CN(C)C=O) 0.01.
For `CCC1=C(C)C2=Cc3cc4c(cc3B(O)N2C1=O)OCO4`, the photoluminescence quantum yield is, setting by setting: (in CC#N) 0.57; (in CO) 0.3; (in CS(C)=O) 0.8; (in ClC(Cl)Cl) 0.61.
On to `CCCCN(CCCC)c1ccc(/C=C/c2ccc3nc(/C=C/c4nc5ccc(/C=C/c6ccc(N(CCCC)CCCC)cc6)cc5n(CCC)c4=O)c(=O)n(CCC)c3c2)cc1`, for which the photoluminescence quantum yield is, setting by setting: (in C1COCCO1) 0.18; (in ClCCl) 0.01.
As for `CC(C)[Si](C#Cc1ccc(C#C[Si](C(C)C)(C(C)C)C(C)C)c2nc3c(ccc4cc5ccccc5cc43)nc12)(C(C)C)C(C)C`, under “in CCCCCC”, the photoluminescence quantum yield is 0.37.
The compound `c1ccc(-c2c3ccccc3c(-c3ccccc3)c3cc4ccccc4cc23)cc1` displayed a photoluminescence quantum yield (in ClCCl) of 0.97.
Turning to `CCCCCCN1C(=O)c2cccc3c(-c4scc5c4OCCO5)ccc(c23)C1=O`, the photoluminescence quantum yield (in ClC(Cl)Cl) was determined as 0.61.
As for `CCC1=C(C)C2=Cc3c4ccccc4c4n3[B-](c3ccncc3)(Oc3ccccc3-4)[N+]2=C1C` (configuration not stated), the photoluminescence quantum yield reads like this: (in CC#N) 0.73; (in CCCCCC) 0.78; (in Cc1ccccc1) 0.7; (in ClCCl) 0.7.
For the compound `CCOC(=O)c1ccc2c(c1)[nH]c1c3ccc(C(=O)OCC)cc3sc21`, for the setting “in CCCO”, the photoluminescence quantum yield came to 0.45.
Take `Cn1cccc1-c1ccc(C#N)cc1`: the photoluminescence quantum yield runs as follows: (in C1CCOC1) 0.94; (in CC#N) 0.51; (in CCCCCC) 0.92; (in CCCCOCCCC) 1; (in CCOCC) 0.98.
`N#CC(C#N)=Cc1ccc2c(c1)c1cc(C=C(C#N)C#N)ccc1n2-c1cccc2ccccc12` registered a photoluminescence quantum yield (in ClCCl) of 0.07.
Where the note is “in C1CCCCC1”, `Cc1ccccc1-c1ccccc1C` yielded a photoluminescence quantum yield of 0.01.
On to `C(=C\c1nc2ccccc2s1)/c1ccc(-c2nc3c4cccnc4c4ncccc4c3[nH]2)cc1`, for which the photoluminescence quantum yield is, setting by setting: (in C1CCOC1) 0.33; (in CC#N) 0.17; (in CO) 0.11; (in ClCCl) 0.25.
On to `COc1ccc2c(c1)CCC1=C(c3ccccc3)C3=Nc4c(-c5ccccc5)c5c(n4[B-](F)(F)[N+]3=C12)-c1ccc(OC)cc1CC5`, for which the photoluminescence quantum yield (in ClC(Cl)Cl) worked out at 0.28.
In the case of `Cc1nnc(-c2ccc(-n3c4ccccc4c4ccccc43)cc2)o1`, the photoluminescence quantum yield (in Cc1ccccc1) turned out to be 0.55.
As for `CC(=O)OC[C@H]1O[C@@H](OCC#Cc2ccc(C3=C4C(C)=CC(/C=C/c5ccc(N(C)C)cc5)=[N+]4[B-](F)(F)n4c(/C=C/c5ccc(N(C)C)cc5)cc(C)c43)cc2)[C@H](OC(C)=O)C(OC(C)=O)[C@@H]1OC(C)=O` (some centres not stated), where the note is “in CC#N”, the photoluminescence quantum yield was found to be 0.2.
Consider `CCCCCCCCC1(CCCCCCCC)c2cc3c(cc2-c2sc(-c4ccc(/C=C5\SC(N6CCCCC6)=NC5=O)c5nsnc45)cc21)C(CCCCCCCC)(CCCCCCCC)c1cc(-c2ccc(/C=C4\SC(N5CCCCC5)=NC4=O)c4nsnc24)sc1-3`, for which the photoluminescence quantum yield by setting is: (in C1CCOC1) 0.14; (in ClC(Cl)Cl) 0.144.
`COCCC1=Cc2nc1ccc1[nH]c(cc1CCOC)c1nc(c(N3C(=O)CCCC3=O)cc3[nH]c2cc3CCOC)C(CCOC)=C1`: where the note is “in Cc1ccccc1”, the photoluminescence quantum yield came out at 0.36.
`CCCCc1ccc(-n2c3c4ccc(C(F)(F)F)cc4nc(-c4ccc(C#N)cc4)c3c3c2c2c(-c4ccc(C#N)cc4)nc4cc(C(F)(F)F)ccc4c2n3-c2ccc(CCCC)cc2)cc1` yielded a photoluminescence quantum yield (in ClC(Cl)Cl) of 0.14.
For the compound `COC(=O)C([NH3+])Cc1ccc2oc(-c3ccncc3)nc2c1` (configuration not stated), the photoluminescence quantum yield is 0.01 (in CC1CCCCC1), 0.05 (in CC#N), 0.18 (in CO) and 0.22 (in O).
Where the note is “in ClC(Cl)Cl”, `Cc1ccc(/C2=c3\cc/c(o3)=C(\c3ccc(C)cc3)c3ccc([nH]3)-c3ccc4n3[P-](=O)(=O)[N+]3=C(C=CC3=C4c3ccc[nH]3)c3ccc2[nH]3)cc1` returned a photoluminescence quantum yield of 0.15.
Regarding `O=C1c2ccccc2-c2nc3ccccc3n21`, the photoluminescence quantum yield (in ClCCl) worked out at 0.04.
As to `CC(=O)[B-]1(C(C)=O)OC(c2ccccc2)=CC(c2ccccc2)=[O+]1`, the photoluminescence quantum yield (in CC#N) was 0.8 and the photoluminescence quantum yield (in ClC(Cl)(Cl)Cl) was determined as 0.9.
With `CCCCCCOc1ccc(C#Cc2ccc(C#CC#Cc3ccc(C#Cc4ccc(OCCCCCC)c(OCCCCCC)c4)c4nsnc34)c3nsnc23)cc1OCCCCCC`, the photoluminescence quantum yield (in CN(C)C=O) was found to be 0.006; the photoluminescence quantum yield (in COc1ccccc1) worked out at 0.43; the photoluminescence quantum yield (in Cc1ccccc1) amounted to 0.58; the photoluminescence quantum yield (in ClC(Cl)Cl) was 0.49; the photoluminescence quantum yield (in ClCCCl) came out at 0.27; the photoluminescence quantum yield (in ClCCl) was 0.36.
As for `N#CC(/N=C/c1ccccc1O)=C(C#N)/N=C/c1ccccc1O`, the photoluminescence quantum yield (in CC#N) is 0.017.
Regarding `CCn1c2ccccc2c2cc(/C=C/c3cc(/C=C/c4ccc5c(c4)c4ccccc4n5CC)ncn3)ccc21`, the photoluminescence quantum yield turned out to be 0.25 (in C1CCOC1); 0.25 (in CCOC(C)=O); 0.42 (in CN(C)C=O); 0.19 (in Cc1ccccc1); 0.29 (in ClCCl).
With `c1ccc(-c2c3c(c(-c4ccccc4)c4cc5ccccc5cc24)Cc2c(c(-c4ccccc4)c4cc5ccccc5cc4c2-c2ccccc2)C3)cc1`, the photoluminescence quantum yield came out at 0.27 (in CC#N); 0.28 (in CCCCCC); 0.3 (in CO); 0.61 (in Cc1ccccc1); 0.21 (in ClCCl).
For the compound `O=[N+]([O-])c1ccc(F)cc1C1CC(c2cccc3ccccc23)=NN1c1ccccc1` (configuration not stated), the photoluminescence quantum yield runs as follows: (in C1CCCCC1) 0.24; (in C1CCOC1) 0.3; (in C1COCCO1) 0.46; (in CC#N) 0.2; (in CC(C)O) 0.19; (in CCOC(C)=O) 0.15. The photoluminescence quantum yield (in CCOCC) stood at 0.2; the photoluminescence quantum yield (in CO) was 0.14; the photoluminescence quantum yield (in Cc1ccccc1) came to 0.22; the photoluminescence quantum yield (in ClC(Cl)Cl) was 0.12; the photoluminescence quantum yield (in O) worked out at 0.12.
For the compound `COC(=O)c1cc(=O)n(C)c2cc(-c3ccccc3N(C)C)sc12`, where the note is “in ClCCl”, the photoluminescence quantum yield was found to be 0.17.
In turn, `COc1ccc(C2=[N+]3C(=C(c4ccc(I)cc4)c4ccc(-c5ccc(OC)cc5)n4[B-]3(F)F)C=C2)cc1` returned a photoluminescence quantum yield (in ClC(Cl)Cl) of 0.42.
Take `COc1cc(C2=CC(c3ccccc3)=C(c3ccccc3)C2)cc(OC)c1OC`: the photoluminescence quantum yield (in ClCCl) was found to be 0.0137.
Where the note is “in C1CCOC1”, `CN(C)c1ccc(C(=Cc2ccc(C#N)cc2)c2ccc(N(C)C)cc2)cc1` yielded a photoluminescence quantum yield of 0.056.
On to `CC(C)c1cccc(C(C)C)c1-n1c(=O)c2cc3nc(-c4ccccc4)c4cc5c(=O)n(-c6c(C(C)C)cccc6C(C)C)c(=O)c6cc7c(-c8ccccc8)nc8cc(c1=O)c2c1c3c4c(c56)c7c81`, for which the photoluminescence quantum yield (in ClC(Cl)Cl) came out at 0.1.
Compound `Cc1ccccc1CN(Cc1ccccc1C)c1nc(C#N)c(N(Cc2ccccc2C)Cc2ccccc2C)nc1C#N` came in with a photoluminescence quantum yield (in ClC(Cl)Cl) of 0.73.
